Where no end group is shown, it is not given here.
Columns and labels:
E. coli ATCC25922 = assay type: cell-based, Escherichia coli
Protocol: (§1) The antibacterial activity was evaluated using a standard MIC and MBC assay according to the National Committee for Clinical Laboratory Standards (NCCLS). MIC, MBC assay, and time-kill curves for the optimal peptide are provided in the Supplementary Materials.
Antimicrobial Activity Assays. The antibacterial activity of the peptides was determined using a method designed from the National Committee for Clinical Laboratory Standards (NCCLS) in the United States. All the strains used in the experiment are preserved in the laboratory. Briefly, log phase bacterial cells were diluted in MHB to a final concentration of 0.5-1x10^5 CFU/mL. Subsequently, 50μL of different concentrations of polypeptides were incubated with 50 μL of bacterial solution in sterile 96-well plates. In the minimum inhibitory concentration (MIC) assay, […], and the minimum inhibitory concentration (MIC) was determined by the absorbance at 492 nm of the microplate reader, and the minimum inhibitory concentration (MIC) inhibited 95% of bacteria grow. Determination of minimum bactericidal concentration: the plate was incubated at 37°C for 4 hours, 50 μL of the mixture was taken out of each well, diluted with an appropriate amount of PBS, smeared on the agar plate, and cultured overnight. Colonies were counted and the initial CFU/well was retrospectively calculated the following day. The lowest concentration of peptide that kills 99.9% of bacterial cells is the minimum bactericidal concentration (µM), Each test was replicated at least 3 times.

A. baumannii ATCC19606 = assay type: cell-based, Acinetobacter baumannii
Protocol: as §1
Antimicrobial Activity Assays. The antibacterial activity of the peptides was determined using a method designed from the National Committee for Clinical Laboratory Standards (NCCLS) in the United States. All the strains used in the experiment are preserved in the laboratory. Briefly, log phase bacterial cells were diluted in MHB to a final concentration of 0.5-1x10^5 CFU/mL. Subsequently, 50μL of different concentrations of polypeptides were incubated with 50 μL of bacterial solution in sterile 96-well plates. In the minimum inhibitory concentration (MIC) assay, the plate was incubated at 37°C for 24 h, and the minimum inhibitory concentration (MIC) was determined by the absorbance at 492 nm of the microplate reader, and the minimum inhibitory concentration (MIC) inhibited 95% of bacteria grow. Determination of minimum bactericidal concentration: the plate was incubated at 37°C for 4 hours, 50 μL of the mixture was taken out of each well, diluted with an appropriate amount of PBS, smeared on the agar plate, and cultured overnight. Colonies were counted and the initial CFU/well was retrospectively calculated the following day. The lowest concentration of peptide that kills 99.9% of bacterial cells is the minimum bactericidal concentration (µM), Each test was replicated at least 3 times.

[1] = test system: E. coli K88 outer membrane; experiment: Outer membrane integrity assay (NPN uptake); assay type: cell-based, Escherichia coli
Protocol: The outer and inner membrane integrity of bacterial cells treated with peptides was assessed using NPN and PI staining, respectively. Full details are provided in the Supplementary Materials.
Membrane permeabilization. Outer membrane integrity assay. The fluorescent probe NPN (Sigma-Aldrich, catalog no. 104043, ≥98%) was used to assess the outer membrane integrity of DiPGLa-H or mucin-treated E. coli K88. Briefly, log-medium E. coli K88 cells (OD600 = 0.2) were incubated with NPN (10 μM) in 5 mM HEPES buffer (pH 7.4, containing 5 mM glucose) for 30 min, and background fluorescence was recorded for subtraction. (excitation λ = 350 nm, emission λ = 420 nm) using a microplate reader (Varioskan Flash; Thermo, America). Subsequently, 100 μL of cell suspension was mixed with an equal volume of peptide solutions ranging in concentration from 4 to 64 μM in a sterile 96-well black plate. Fluorescence was recorded over time until no further increase in fluorescence was detected. Each test was performed independently, in duplicate, with three biological replicates, and results were converted to percent NPN uptake using the equation. NPN uptake (%) = (Fobs – Fbuffer)/ (Fpositive – Fbuffer) ×100%.
where Fobs is the observed fluorescence at a given peptide concentration, Fbuffer is the fluorescence of the buffer, and Fpositive is the fluorescence of NPN with microbial cells upon addition of 10 μg/mL polymyxin B (Sigma), which was used as a positive control because of its strong outer membrane-permeabilizing property. Untreated cell suspension served as the negative control.

E. coli K88 [2] = experiment: Heat, pH and salt sensitivity assay (MIC); assay type: cell-based, Escherichia coli; conditions: salts of Table S2
Protocol: To assess the stability of the peptides in physiological conditions, the peptides were incubated with E. coli K88 and S. aureus Mu50 in the presence of salts (150 mM NaCl, 4.5 mM KCl, 6 µM NH4Cl, 8 µM ZnCl2, 1 mM MgCl2, 4 µM FeCl3, and 2.5 µM CaCl2) in accordance with a previously reported protocol. To determine the thermal stability of the peptides, the peptides were pretreated at 100°C for 30 min, 60 min, and 90 min and cooled on ice for 10 min. The effect of acid and base on the antimicrobial activity was measured by treating the peptides for 2 h at pH of 2, 4, 10, and 12 in 10 mM sodium phosphate buffer adjusted with HCl or NaOH.

E. coli K88 [3] = experiment: ROS generation (DCFH-DA); assay type: cell-based, Escherichia coli; conditions: 8 µM DiPGLa-H, 1 h 37°C, DCFH-DA 10 µM
Protocol: (§2) 2′,7′-Dichlorofluorescin diacetate (DCFH-DA) was used to determine the intracellular production of ROS as previously described. S. aureus Mu50 and E. coli K88 cells were diluted until OD600 = 0.4 and incubated in different concentrations of peptide at 37°C for 1 h. Next, the mixed solution was incubated with 10 µM DCFH-DA at 37°C for 1 h. The fluorescence (excitation wavelength = 488 nm, emission wavelength = 525 nm) was monitored with an Infinite 200 pro fluorescence spectrophotometer (Tecan, China). Each test was measured in triplicate and tested twice.

S. aureus Mu50 = experiment: ROS generation (DCFH-DA); assay type: cell-based, Staphylococcus aureus MRSA; conditions: 8 µM DiPGLa-H, 1 h 37°C, DCFH-DA 10 µM
Protocol: as §2

E. coli = conditions: one range printed for E. coli and S. aureus; cited from earlier work
Protocol: (§3) PGLa, an amphibian 21-residue cationic AMP, with a net charge of +4, was found in the skin of the toad Xenopus laevis ([6]). The minimum inhibitory concentration (MIC) of PGLa against Escherichia coli 25922 and S. aureus 25923 were 10–50 μg/mL and 50–100 μg/mL, respectively ([6]). […] The rep ...

S. aureus = conditions: one range printed for E. coli and S. aureus; cited from earlier work
Protocol: as §3

## KIAKVALKALKIAKVALKAL-NH2 (C-terminus assumed) [DiPGLa-H]
E. coli ATCC25922; ATCC25922, 4 h
  MBC E. coli ATCC25922: 8 µM
E. coli ATCC25922; ATCC25922, 24 h
  MIC E. coli ATCC25922: 8 µM
A. baumannii ATCC19606; ATCC19606, 4 h
  MBC A. baumannii ATCC19606: 4 µM
A. baumannii ATCC19606; ATCC19606, 24 h
  MIC A. baumannii ATCC19606: 1 µM
[1]; 64 µM peptide, relative to 10 µg/mL polymyxin B = 100%
  outer membrane permeability (NPN uptake): 184.4%
[1]; 1× MIC
  membrane permeability: approximately 80%
E. coli K88 [2]
  elevation in MIC values by cationic ions, E. coli K88: 2–8 times
E. coli K88 [3]
  elevation of ROS production vs untreated: 11.3 fold
S. aureus Mu50
  elevation of ROS production vs untreated: 4.6 fold
other
  fold higher TIall vs PGLa-B1: 64 fold
E. coli
  MIC E. coli: 0.75 to 1.5 µM
S. aureus
  MIC S. aureus: 0.75 to 1.5 µM
